Values joined by “and” are separate entries in the source; they are usually repeats but may differ in a detail not shown here. Identical values can stand only once. Each block holds one compound with its values, some of them ahead of it.
Tests used:
neurons = assay: Apoptotic nuclei induced by Aβ fibrils, Hoescht staining; type: cell-based
Method: Additional results from another compound embodiment, NCGC00355553, are provided by FIG. 9C. Apoptotic nuclei were evaluated by Hoescht staining.

[1] = tested on: P. falciparum strain NF54 asexual parasites; assay: Asexual stage parasite growth inhibition, SYBR Green assay, 72 hours; type: cell-based; details: for % Killing / IC50: NF54, 72 hours; for IC50: Plasmodium falciparum
Method: In this example, several of the c-Abl inhibitors were tested in the asexual […] strain of P. falciparum parasites for activity against malaria. […] The pre-diluted parasites were dispensed into a 1536-well plate (2.5 μL/well). […] The fluorescence of each well was measured at 520 nm following excitation at 490 nm using a ViewLux platereader (PerkinElmer).

TLE mice model = assay: Pilocarpine-induced status epilepticus (SE) after 15 days of supplemented diet; type: in vivo, mice (C57BL/6); parameters: Survival % / Survival %, mean: concentration or dose not given beside the values
Method: (§1) In this example, the ability of compound embodiments of the present disclosure to increase survival and diminish seizure symptoms in a TLE mice model was evaluated. […] The animals' weights were determined the week before and during the two weeks of c-Abl inhibitors treatment (results are provided in Table 12 and are illustrated graphically in FIG. 28). After 15 days of feeding, status epilepticus (SE) induction was evaluated. The mice were IP injected with Scopolamine (1.5 mg/Kg) and after 15 minutes, the SE was induced by IP injection of Pilocarpine (420 mg/Kg). The animals' behavior and the seizures induction was evaluated according to Racine's scale and the survival was determined during 60 minutes post-SE induction. […] Results are tabulated in Table 13, below and also are illustrated graphically in FIGS. 29A-29D.

[2] = Blood and serum analysis after one month of supplemented diet; type: in vivo, mice (C57BL/6×C3H); details: 1 month diet (Nilotinib 200 ppm; NCGC00373060 67 ppm), individual mice
Description: After this one-month period, blood and serum was obtained from the mice and analyzed.

Leukemia K562 cell = Leukemia K562 cell proliferation/viability assay (CellTiterGlo, 48 hours); type: cell-based; parameters: unit not given here; details: K562 cells
Method: C-Abl is encoded by the ABL1 gene (NCBI Gene ID NO. 25). […] Assays for determining if a small molecule inhibits c-Abl activity are known. Non-limiting examples include cell proliferation assays using cancer cells that are BCR-Abl positive and depend on BCR-Abl for growth, such as the leukemia cell line K562. […] In some embodiments described herein, compounds are tested for ability to reduce K562 cell proliferation in an HTS adapted assay which measures cell viability using the reagent CellTiterGlo after 48 hours treatment.

[3] = Body weight during supplemented diet in TLE mice study; type: in vivo, mice (C57BL/6)
Method: as §1

[4] = tested on: ShSy5y neuroblastome cells; assay: Cholesterol accumulation induced by U18666, Filipin or PFO-GST staining; type: cell-based; details: U18 0.5 μg/ml 24 hours; NCGC00373060 0.1 and 0.01 μM, Imatinib 10 uM
Method: Cells were fixed and then stained with Filipin Staining. […] Cells were fixed and a PFO-GST immunofluorescence was performed.

APP/PSEN1 mice = assay: APP/PSEN1 AD mice model, water maze, Barnes maze and brain histology; details: water maze
Description: The Barnes maze test is a more sensible test that detects the earlier and subtle cognitive alterations.

[5] = Pharmacokinetic profile in brain; type: in vivo, mice; details: 12.5 mg/kg IP
hippocampal neurons = assay: Neuroprotection against Aβ fibrils, MTT assay; type: cell-based; details: 0.01, 0.1 and 1 μM; 5 μM Aβ peptide, 24 hours
Method: Compound embodiments NCGC00373060 and NCGC00373056 also conferred neuroprotection against Aβ fibrils. […] Additional data from other compounds are provided by FIGS. 8C-8E. Neurons were incubated with 5 μM Aβ peptide in presence of the different compound concentrations for 24 hours and cell viability was evaluated by the MTT assay. Results from additional compounds are provided by FIG. 8C.

[6] = Pharmacokinetic profile in plasma; type: in vivo, mice; details: 12.5 mg/kg IP
5XFAD mice = assay: 5XFAD AD mice model, water maze and amyloid burden; type: in vivo; details: 9-month-old 5XFAD mice, 12.5 mg/kg daily for 30 days, IP
Description: . First, the 5XFAD mice was used as the AD model. […] .

CML (K562) cell line = assay: K562 cell proliferation inhibition by MTT assay, 48 hours; type: cell-based; details: K562, 48 hours
Method: In this example, the ability of two compound embodiments described here, NCGC00373060 and NCGC00373056, to induce cell death in the CML (K562) cell line was evaluated. The leukemia cells were incubated with different concentrations of the compounds for 48 hours, and the cell proliferation inhibition was evaluated by the MTT assay. […] The leukemia cells were incubated with different concentrations of each compound embodiment for 48 hours, and the cell proliferation inhibition was evaluated by the MTT assay.

[7] = individual mice, diet 67 ppm NCGC00373060 or 200 ppm Nilotinib
[8] = mean, diet 67 ppm NCGC00373060 or 200 ppm Nilotinib

Compound: O=C1Nc2cc(OC(F)(F)F)ccc2Nc2ccc(-c3cn[nH]c3)cc21 [NCGC00355553, 2-(1H-Pyrazol-4-yl)-8-(trifluoromethoxy)-5,10-dihydro-1-dibenzo[b,e][1,4]diazepin-11-one]
apoptotic nuclei induced by Aβ fibrils (neurons): prevent increases in apoptotic nuclei induced by Aβ fibrils

Compound: Cc1cn(-c2cc(NC(=O)c3ccc(C)c(Nc4nccc(-c5cccnc5)n4)c3)cc(C(F)(F)F)c2)cn1 [Nilotinib]
% Killing [1]: 98.7% | IC50 [1]: 648 nM | Survival % (TLE mice model; individual mice, 60 minutes post-SE induction): 100% | Latency SE (TLE mice model; [7]): 30 min and 22 min | Survival %, mean (TLE mice model; mean, 60 minutes post-SE induction): 100% | Latency SE, mean (TLE mice model; [8]): 26 min | SE %, mean (TLE mice model; [8]): 40% | ALT [2]: 36.0 IU/L and 26.0 IU/L | AST [2]: 142.0 IU/L and 114.0 IU/L | Alkaline phosphatase [2]: 386.4 IU/ and 278.2 IU/ | Bacilliformes [2]: 0 µL⁻¹ | Bacilliformres (%) [2]: 0% | Blastos [2]: 0 µL⁻¹ | Blood urea nitrogen [2]: 19.7 mg/dL and 18.2 mg/dL | C.H.C.M. [2]: 29.3 g/dL and 28.9 g/dL | Calcium [2]: 10.4 mg/dL and 10.2 mg/dL | Creatinine [2]: 1.0 mg/dL and 0.8 mg/dL | Eosinophils [2]: 32 µL⁻¹ and 0 µL⁻¹ | Eosinophils (%) [2]: 1% and 0% | Erythrocytes [2]: 5.9e+06 µL⁻¹ and 8.6e+06 µL⁻¹ | Glucose (without fluoride) [2]: 84.0 mg/dL and 56.0 mg/dL | H.C.M. [2]: 14.9 pg/cel and 14.7 pg/cel | Hematocrit [2]: 30.0% and 43.6% | Hemoglobin [2]: 8.8 g/dL and 12.6 g/dL | Juvenile [2]: 0 µL⁻¹ | Leukocytes [2]: 3,200 /μL and 3,300 /μL | Lymphocytes (%) [2]: 60% and 62% | Mean platelet vol. [2]: 6.9 fL and 6.1 fL | Monocytes (%) [2]: 4% and 15% | Morphology leukocytes [2]: Normal | Myelocytes [2]: 0 µL⁻¹ | Reticulocytes (%) [2]: 0.5% and 0.6% | Reticulocytes (×10^3/μL) [2]: 29.6 ×10^3/μL and 51.3 ×10^3/μL | Segmented [2]: 759 µL | Segmented (%) [2]: 35% and 23% | Segmented (μL) [2]: 1,120 μL | Thrombocyte morphology [2]: Normal | Thrombocytes [2]: 780,000 /μL and 689,000 /μL | Total cholesterol [2]: 114.0 mg/dL and 84.0 mg/dL | V.C.M. [2]: 50.8 fL and 51.0 fL | V.H.S. [2]: 3.0 and 6.0 | Weight [2]: 42.7 g and 25.2 g | Youth (%) [2]: 0% | Lymphocytes ([2]; absolute count): 1,920 and 2,046 | Monocytes ([2]; absolute count): 128 and 495 | Efficacy (Leukemia K562 cell): −86.5 | Body weight week 4 [3, 7]: 17 gr (2×) and 19 gr and 15 gr (2×) and 14 gr (2×) and 18 gr (2×) | Body weight week 5 [3, 7]: 18 gr (3×) and 21 gr and 17 gr and 19 gr and 16 gr and 20 gr (2×) | Body weight week 3 ([3]; individual mice, week before diet (67 ppm NCGC00373060 or 200 ppm Nilotinib)): 15 gr (2×) and 18 gr and 11 gr and 9 gr (2×) and 12 gr and 14 gr and 16 gr | Body weight week 4, mean [3, 8]: 16 gr | Body weight week 5, mean [3, 8]: 19 gr | Body weight week 3, mean ([3]; mean, week before diet (67 ppm NCGC00373060 or 200 ppm Nilotinib)): 13 gr

Compound: Cc1ccc(NC(=O)c2ccc(CN3CCN(C)CC3)cc2)cc1Nc1nccc(-c2cccnc2)n1 [Imatinib]
% Killing [1]: 111.0% | Efficacy (Leukemia K562 cell): −105.5 | cholesterol accumulation [4]: decreased the cholesterol accumulation

Compound: CS(=O)(=O)Nc1cccc(-c2ccc3c(c2)C(=O)Nc2cc(OC(F)(F)F)ccc2N3)c1 [NCGC00355551, N-(3-(11-Oxo-8-(trifluoromethoxy)-10,11-dihydro-5H-dibenzo[b,e][1,4]diazepin-2-yl)phenyl)methanesulfonamide]
cognitive decline in APP/PSEN1 mice (APP/PSEN1 mice): protects APP/PSEN1 mice against cognitive decline | Efficacy (Leukemia K562 cell): −85.3

Brain concentration ([5]; Time 0.083): 1.291 µmol/kg | Brain concentration ([5]; Time 0.25): 2.649 µmol/kg | Brain concentration ([5]; Time 0.5): 2.658 µmol/kg | Brain concentration ([5]; Time 1): 3.381 µmol/kg | Brain concentration ([5]; Time 2): 2.212 µmol/kg | Brain concentration ([5]; Time 4): 1.065 µmol/kg | Brain concentration ([5]; Time 7): 0.202 µmol/kg | Brain concentration ([5]; Time 24): 0.004 µmol/kg | IC50 [1]: 1360 nM | Plasma concentration ([6]; Time 0.083): 12.080 µM | Plasma concentration ([6]; Time 0.25): 16.961 µM | Plasma concentration ([6]; Time 0.5): 16.559 µM | Plasma concentration ([6]; Time 1): 8.627 µM | Plasma concentration ([6]; Time 2): 6.747 µM | Plasma concentration ([6]; Time 4): 2.600 µM | Plasma concentration ([6]; Time 7): 0.421 µM | Plasma concentration ([6]; Time 24): 0.009 µM
Compound: CNS(=O)(=O)c1cccc(-c2ccc3c(c2)C(=O)Nc2cc(OC(F)(F)F)ccc2O3)c1 [NCGC00373056, N-Methyl-3-(11-oxo-8-(trifluoromethoxy)-10H-dihydrodibenzo[b,f][1,4]oxazepin-2-yl)benzenesulfonamide]
apoptotic nuclei induced by Aβ fibrils (neurons): prevention of the increases in apoptotic nuclei induced by Aβ fibrils | activity against malaria parasites ([1]; NF54): low single digit uM range | % Killing [1]: 96.5% | neuroprotection against Aβ toxicity (hippocampal neurons): protect neurons against the Aβ toxicity | cognitive decline, water maze (5XFAD mice): protected 5XFAD mice against the cognitive decline | AC50 (CML (K562) cell line; Homo sapiens, determined in different assays): 500 nM | induction of cell death (CML (K562) cell line; MTT): able to induce cell death | Efficacy (Leukemia K562 cell): −78.5
